According to patent publication US9359308B2, “Pyrazine kinase inhibitors” (Portola Pharmaceuticals, Inc., priority 2011, dated 2016):

Biological target: T1, full length active recombinant SYK enzyme (Homo sapiens, UniProt P43405)
T1 construct: full length active recombinant SYK enzyme (Millipore, Calif.); purchased Millipore
Assay: Inhibition of Syk tyrosine phosphorylation activity (LANCE TR-FRET kinase assay)
Type: biochemical
Details: activity in the Syk assays, class symbols
Text: The in vitro and in vivo human Syk activities of the inventive compounds can be determined by various procedures known in the art, such as a test for their ability to inhibit the activity of human plasma Syk. […] The IC50 value is the concentration (in nM) of the compound required to provide 50% inhibition of human Syk proteolytic activity.
An in vitro assay for detecting and measuring inhibition activity against Syk is as follows:
Inhibition of Syk Tyrosine Phosphorylation Activity
Potency of candidate molecules for inhibiting Syk tyrosine phosphorylation activity is assessed by measuring the ability of a test compound to inhibit Syk-mediated tyrosine phosphorylation of a Syk-specific substrate.
SYK tyrosine phosphorylation activity is measured using the LANCE™ Technology developed by Perkin Elmer Life and Analytical Sciences (Boston, Mass.). LANCE™ refers to homogeneous time resolved fluorometry applications using techniques such as time-resolved fluorescence resonance energy transfer assay (TR-FRET) (see generally for procedures in Perkin Elmer Application Note-How to Optimize a Tyrosine Kinase Assay Using Time Resolved Fluorescence-Based LANCE Detection, wwww.perkinelmer.com/lifesciences). The assay principle involves detection of a phosphorylated substrate using energy transfer from a phosphospecific europium-labeled antibody to streptavidin-allophycocyanin as an acceptor.
To test the ability of candidate molecules to inhibit SYK tyrosine phosphorylation activity, molecules are reconstituted in 30% DMSO and serially diluted 1:3 with the final dilution containing DMSO in the absence of the candidate molecule. The final DMSO concentration in the assay is 3%. Kinase assays are performed as a two part reaction. The first reaction is a kinase reaction and which comprises of a candidate molecule, full length active recombinant SYK enzyme (Millipore, Calif.) and biotin-labeled SYK-specific substrate biotin-DEEDYESP-OH. The second reaction involves termination of the kinase reaction and the simultaneous addition of the detection reagents-europium-labeled anti-phosphotyrosine reagent (Eu-W1024-PY100, Perkin Elmer, Boston, Mass.) and Streptavidin-Allophycocyanin detection reagent (SA-APC, Prozyme, CA). The kinase reaction is performed in a black U-bottom 96-well microtitre plate. The final reaction volume is 50 μL and contains a final concentration of 1 nM active SYK enzyme, 550 nM SYK-substrate, and 100 μM ATP diluted in a buffer containing 50 mM Tris pH 7.5, 5 mM MgCl2, and 1 mM DTT. The reaction is allowed to proceed for 1 hour at room temperature. The quench buffer contains 100 mM Tris pH 7.5, 300 mM NaCl2, 20 mM EDTA, 0.02% Brij35, and 0.5% BSA. The detection reagents are added to the reaction mixture at the following dilutions-1:500 for Eu-W1024-PY100 and 1:250 for SA-APC. The kinase reaction is terminated by the addition of 50 μL quench buffer containing the detection reagents. The detection is allowed to proceed for 1 hr at room temperature. Detection of the phosphorlated substrate in the absence and presence of inhibitors is measured in the TR-FRET instrument, Analyst HT (Molecular Probes, Sunnyvale, Calif.) and the condition for measurements are set up using CriterionHost Release 2.0 (Molecular Probes, Sunnyvale, Calif.). The settings used are a follows: excitation 360 nm, emission 665-7.5 nm, beam splitter 350 nm 50/50, flash 100 pulses, delay 60 us, integration 400 us, z-height 2 mm. Inhibition of SYK-tyrosine kinase activity is calculated as the maximum response observed in the presence of inhibitor, compared to that in the absence of inhibitor. IC50s were derived by non-linear regression analysis.

Row | Compound | IC50
1 | NC(=O)c1ncc(N[C@@H]2CCCC[C@@H]2N)nc1Nc1ccc(N2CCOCC2=O)cc1 [Example 442, 5-(((1R,2S)-2-aminocyclohexyl)amino)-3-((4-(3-oxomorpholino)phenyl)amino)pyrazine-2-carboxamide] | 10 to 100 nM
2 | CC[C@@H](Nc1cnc(C(N)=O)c(Nc2ccc(S(C)(=O)=O)cc2)n1)C(N)=O [Example 159, (R)-5-(1-amino-1-oxobutan-2-ylamino)-3-(4-(methylsulfonyl)phenylamino)pyrazine-2-carboxamide] | 10 to 100 nM
3 | NC(=O)c1ncc(N[C@@H]2CCCC[C@@H]2N)nc1Nc1cc(-c2ncccn2)cc(-n2cccn2)c1 [Example 45, 3-(3-(1H-pyrazol-1-yl)-5-(pyrimidin-2-yl)phenylamino)-5-((1R,2S)-2-aminocyclohexylamino)pyrazine-2-carboxamide] | 1 to 10 nM
4 | NC(=O)c1ncc(N[C@@H]2CCCC[C@@H]2N)nc1Nc1ccc(N2CCCC2)c(C(=O)N2CCCC2)c1 [Example 285, 5-((1R,2S)-2-aminocyclohexylamino)-3-(4-(pyrrolidin-1-yl)-3-(pyrrolidine-1-carbonyl)phenylamino)pyrazine-2-carboxamide] | 100 to 1000 nM
5 | CC(C)[C@@H](Nc1cnc(C(N)=O)c(Nc2ccc(-c3ccccn3)cc2)n1)C(N)=O [Example 209, (R)-5-(1-amino-3-methyl-1-oxobutan-2-ylamino)-3-(4-(pyridin-2-yl)phenylamino)pyrazine-2-carboxamide] | 10 to 100 nM
6 | NC(=O)c1ncc(N[C@@H]2CCCC[C@@H]2N)nc1Nc1cccc(-c2ncco2)c1 [Example 444, 5-(((1R,2S)-2-aminocyclohexyl)amino)-3-((3-(oxazol-2-yl)phenyl)amino)pyrazine-2-carboxamide] | < 1 nM
7 | CCc1cc(Nc2nc(N[C@@H](C(N)=O)C(C)(C)C)cnc2C(N)=O)sn1 [Example 236, (R)-5-(1-amino-3,3-dimethyl-1-oxobutan-2-ylamino)-3-(3-ethylisothiazol-5-ylamino)pyrazine-2-carboxamide] | 10 to 100 nM
8 | NC(=O)c1ncc(N[C@H](CC2CC2)C(N)=O)nc1Nc1csc2ncccc12 [Example 9, (R)-5-(1-amino-3-cyclopropyl-1-oxopropan-2-ylamino)-3-(thieno[2,3-b]pyridin-3-ylamino)pyrazine-2-carboxamide] | 1 to 10 nM
9 | CNC1(CNc2cnc(C(N)=O)c(Nc3ccc4ncccc4c3)n2)CC1 [Example 129, 5-(((1-(methylamino)cyclopropyl)methyl)amino)-3-(quinolin-6-ylamino)pyrazine-2-carboxamide] | 1 to 10 nM
10 | COc1ccc(Nc2nc(N[C@@H]3CCCC(F)(F)[C@@H]3N)cnc2C(N)=O)cc1OC [Example 165, 5-((1R,2R)-2-amino-3,3-difluorocyclohexylamino)-3-(3,4-dimethoxyphenylamino)pyrazine-2-carboxamide] | 1 to 10 nM
11 | Cn1cc(Nc2nc(N[C@@H]3CCCC[C@@H]3N)cnc2C(N)=O)cn1 [Example 186, 5-((1R,2S)-2-aminocyclohexylamino)-3-(1-methyl-1H-pyrazol-4-ylamino)pyrazine-2-carboxamide] | 10 to 100 nM
12 | C[C@@H](Nc1cnc(C(N)=O)c(Nc2cnc3ccccc3c2)n1)C(N)=O [Example 5, (R)-5-(1-amino-1-oxopropan-2-ylamino)-3-(quinolin-3-ylamino)pyrazine-2-carboxamide] | 1 to 10 nM
13 | Cc1cc(Nc2nc(N[C@H](CC(C)C)C(N)=O)cnc2C(N)=O)sn1 [Example 22, (R)-5-(1-amino-4-methyl-1-oxopentan-2-ylamino)-3-(3-methylisothiazol-5-ylamino)pyrazine-2-carboxamide] | 1 to 10 nM
14 | CC[C@@H](Nc1cnc(C(N)=O)c(Nc2ccc3nccnc3c2)n1)C(N)=O [Example 369, (R)-5-(1-amino-1-oxobutan-2-ylamino)-3-(quinoxalin-6-ylamino)pyrazine-2-carboxamide] | 1 to 10 nM
15 | CC(C)[C@@H](Nc1cnc(C(N)=O)c(Nc2ccc(CN3CCOCC3)cc2)n1)C(N)=O [Example 148, (R)-5-(1-amino-3-methyl-1-oxobutan-2-ylamino)-3-(4-(morpholinomethyl)phenylamino)pyrazine-2-carboxamide] | 100 to 1000 nM
16 | NC(=O)c1ncc(N[C@@H]2CCCC[C@@H]2N)nc1Nc1snc2ccsc12 [Example 267, 5-((1R,2S)-2-aminocyclohexylamino)-3-(thieno[3,2-c]isothiazol-3-ylamino)pyrazine-2-carboxamide] | 1 to 10 nM
17 | CC[C@@H](Nc1cnc(C(N)=O)c(Nc2snc(C)c2Cl)n1)C(N)=O [Example 135, (R)-5-((1-amino-1-oxobutan-2-yl)amino)-3-((4-chloro-3-methylisothiazol-5-yl)amino)pyrazine-2-carboxamide] | 10 to 100 nM
18 | NC(=O)c1ncc(N[C@@H]2CCCC(F)(F)[C@@H]2N)nc1Nc1cc(F)c2ncccc2c1 [Example 210, 5-((1R,2R)-2-amino-3,3-difluorocyclohexylamino)-3-(8-fluoroquinolin-6-ylamino)pyrazine-2-carboxamide] | 1 to 10 nM
19 | CC[C@@H](Nc1cnc(C(N)=O)c(Nc2cnn(C3CC3)c2)n1)C(N)=O [Example 260, (R)-5-(1-amino-1-oxobutan-2-ylamino)-3-(1-cyclopropyl-1H-pyrazol-4-ylamino)pyrazine-2-carboxamide] | 100 to 1000 nM
20 | NC(=O)c1ncc(N[C@@H]2CCCC(F)(F)[C@@H]2N)nc1Nc1ccccc1 [Example 17, 5-((1R,2R)-2-amino-3,3-difluorocyclohexylamino)-3-(phenylamino)pyrazine-2-carboxamide] | 10 to 100 nM
21 | NC(=O)c1ncc(N[C@@H]2CCCC[C@@H]2N)nc1Nc1cccc(-c2ncccn2)c1 [Example 12, 5-((1R,2S)-2-aminocyclohexylamino)-3-(3-(pyrimidin-2-yl)phenylamino)pyrazine-2-carboxamide] | 1 to 10 nM
22 | NC(=O)c1ncc(N[C@@H]2CCCC(F)(F)[C@@H]2N)nc1Nc1csc2ncccc12 [Example 448, 5-(((1R,2R)-2-amino-3,3-difluorocyclohexyl)amino)-3-(thieno[2,3-b]pyridin-3-ylamino)pyrazine-2-carboxamide] | 1 to 10 nM
23 | Cc1cc(Nc2nc(N[C@H](CC(F)F)C(N)=O)cnc2C(N)=O)sn1 [Example 119, (R)-5-((1-amino-4,4-difluoro-1-oxobutan-2-yl)amino)-3-((3-methylisothiazol-5-yl)amino)pyrazine-2-carboxamide] | 1 to 10 nM
24 | Cc1ccc(Nc2nc(N[C@H](CC(C)C)C(N)=O)cnc2C(N)=O)cn1 [Example 86, (R)-5-(1-amino-4-methyl-1-oxopentan-2-ylamino)-3-(6-methylpyridin-3-ylamino)pyrazine-2-carboxamide] | 10 to 100 nM
25 | NC(=O)c1ncc(N[C@@H]2CCCC[C@@H]2N)nc1Nc1cnc2cc(F)ccc2c1 [Example 201, 5-((1R,2S)-2-aminocyclohexylamino)-3-(7-fluoroquinolin-3-ylamino)pyrazine-2-carboxamide] | 1 to 10 nM
26 | Cc1nsc(Nc2nc(N[C@@H]3CCCC[C@@H]3N)cnc2C(N)=O)c1C [Example 131, 5-(((1R,2S)-2-aminocyclohexyl)amino)-3-((3,4-dimethylisothiazol-5-yl)amino)pyrazine-2-carboxamide] | < 1 nM
27 | NC(=O)c1ncc(N[C@H](CC2CC2)C(N)=O)nc1Nc1cnc2cccnc2c1 [Example 406, (R)-3-(1,5-naphthyridin-3-ylamino)-5-(1-amino-3-cyclopropyl-1-oxopropan-2-ylamino)pyrazine-2-carboxamide] | 1 to 10 nM
28 | CC[C@@H](Nc1cnc(C(N)=O)c(Nc2cncc(OC)c2)n1)C(N)=O [Example 322, (R)-5-(1-amino-1-oxobutan-2-ylamino)-3-(5-methoxypyridin-3-ylamino)pyrazine-2-carboxamide] | 100 to 1000 nM
